In patent US11733243B2, “Use of acamprosate to modulate ERK1/2 activation in animal models for FXS and ASD and individuals diagnosed with FXS and ASD” (Indiana University Research and Technology Corporation, priority 2013, dated 2023):
“Also recorded” adds a separate entry of the source.

Assays:
fmr1 knockout mice = conditions: mouse, in vivo; cited from earlier work
subjects with FXS = conditions: cited from earlier work
males with FXS = conditions: cited from earlier work
mGluR5 = biological target: T1, mGluR5 (Mus musculus, UniProt Q3UVX5); conditions: in vivo; cited from earlier work
T1 construct: host or cells: fmr1 knockout mouse, in vivo

alcohol intake = conditions: mouse, in vivo; cited from earlier work
[1] = test system: alcohol withdrawal associated anxiety; conditions: in vivo; cited from earlier work
ERK/MAPK = assay: ICC of fixed lymphocytes for ERK/MAPK activity (anti-phospho-Thr202/Tyr204); type: cell-based, human; conditions: tamoxifen, 10 mM
Experimental: Lymphocyte samples were prepared from patient's blood and plated onto a PDL-coated 24-well plate. Cells were fixed by adding 4% paraformaldehyde in PB solution (at RT). Excess paraformaldehyde solution was aspirate out. The fixed cells were washed three times gently with cold DPBS (Bulbecco-modified phosphate buffered saline). Then 0.12% Triton X-100 (diluted in DPBS) was added onto the cells at RT and incubated for 20 minutes at RT. Excess Triton X solution was aspirated out and cells were washed three times (gently) with chilled DPBS. Cells were blocked with 10% horse serum (HS) (diluted in DPBS) for 20 minutes at RT. Unbound blocking agent was washed off. The primary antibody diluted in 1% HS in DPBS was added. Generally a dilution of 1:250 was used. The antibody, which is raised in rabbit recognizes Phospho-Thr202/Tyr204 of ERK/MAPK, which indicates translocation of activated ERK/MAPK into the […] compartment.
Incubation with the primary antibody was done for overnight at 4° C. Unbound primary antibody was washed off, and at this stage the plate can be stored at 4° C. Washed three times at RT with cold DPBS. Added Alexa Fluor conjugated goat anti rabbit (diluted 1:200 in DPBS) and incubated at RT for 1-2 hr. This reagent and this step is light sensitive to. For best results the reagent and this step of the procedure should be kept away from the light. […]

fmr1 KO mice = conditions: mouse, in vivo; cited from earlier work
adults with FXS = conditions: single dose, cited from earlier work
[2] = test system: persons with FXS and comorbid ASD; conditions: 6 persons; cited from earlier work
[3] = test system: cerebellar granule cells from fmr1 knockout mice; conditions: cited from earlier work
ERK1/2 = conditions: adults with FXS; cited from earlier work

T1 sequence (Q3UVX5 19-1203): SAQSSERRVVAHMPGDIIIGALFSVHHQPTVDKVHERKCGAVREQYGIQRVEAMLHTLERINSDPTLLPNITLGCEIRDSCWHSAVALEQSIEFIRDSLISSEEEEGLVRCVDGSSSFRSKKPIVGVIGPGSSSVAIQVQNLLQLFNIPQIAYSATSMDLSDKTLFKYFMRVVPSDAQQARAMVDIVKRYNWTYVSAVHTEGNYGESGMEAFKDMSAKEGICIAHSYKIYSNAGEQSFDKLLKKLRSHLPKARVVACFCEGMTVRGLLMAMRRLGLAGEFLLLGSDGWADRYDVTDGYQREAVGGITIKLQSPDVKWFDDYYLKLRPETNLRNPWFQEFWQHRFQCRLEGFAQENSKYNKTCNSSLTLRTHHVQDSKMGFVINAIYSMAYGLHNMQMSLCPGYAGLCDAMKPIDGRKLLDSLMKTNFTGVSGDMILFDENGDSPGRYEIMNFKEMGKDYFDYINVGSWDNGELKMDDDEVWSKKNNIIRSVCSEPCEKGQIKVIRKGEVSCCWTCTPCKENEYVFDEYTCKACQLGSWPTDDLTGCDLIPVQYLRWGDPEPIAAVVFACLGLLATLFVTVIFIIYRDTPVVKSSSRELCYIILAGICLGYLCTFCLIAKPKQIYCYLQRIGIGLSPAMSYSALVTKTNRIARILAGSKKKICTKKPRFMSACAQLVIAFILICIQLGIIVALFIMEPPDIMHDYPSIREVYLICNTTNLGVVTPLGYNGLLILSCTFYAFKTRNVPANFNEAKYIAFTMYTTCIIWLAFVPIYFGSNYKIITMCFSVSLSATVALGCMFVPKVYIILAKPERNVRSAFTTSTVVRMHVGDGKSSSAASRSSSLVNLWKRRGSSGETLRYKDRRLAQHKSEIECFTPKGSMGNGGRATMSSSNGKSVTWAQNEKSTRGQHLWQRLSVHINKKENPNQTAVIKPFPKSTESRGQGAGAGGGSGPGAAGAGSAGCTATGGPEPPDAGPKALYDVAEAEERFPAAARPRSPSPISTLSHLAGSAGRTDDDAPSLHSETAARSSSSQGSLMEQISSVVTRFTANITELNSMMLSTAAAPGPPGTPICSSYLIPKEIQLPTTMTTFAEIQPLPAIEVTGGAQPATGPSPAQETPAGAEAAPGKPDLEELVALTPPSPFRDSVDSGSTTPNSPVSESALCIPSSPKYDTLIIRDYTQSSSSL

NC[C@H](CC(=O)O)c1ccc(Cl)cc1 (single isomer, unassigned) [STX209]
effect on protein synthesis and dendritic spines (fmr1 knockout mice): correction of aberrant protein synthesis and dendritic spine abnormalities | ABC Irritability (ABC-I) subscale, primary outcome measure (subjects with FXS; 63 subjects aged 6 to 40 years): not associated with improvement on the primary outcome measure | ABC-SW and VABS Socialization, post-hoc 27 subject subset with baseline ABC-SW >8 (subjects with FXS; human, in vivo): significant STX209-associated improvement | Social Avoidance scale (ABC-SA), post-hoc analysis (subjects with FXS; human, in vivo): significant group-wide improvement | subjects reporting sedation (subjects with FXS; human, in vivo): 8% | tolerability (subjects with FXS; human, in vivo): well tolerated

COC(=O)N1CC[C@@H]2[C@H]1CCC[C@@]2(O)C#Cc1cccc(C)c1 [AFQ056]
group treatment effect (males with FXS; 30 males with FXS aged 18 to 35 years): not associated with significant group treatment effect | response in 7 subject subset with full fmr1 gene methylation (males with FXS; ABC subscales and total, CGI-I, Visual Analogue Scale, Repetitive Behavior Scale-Revised): significant response to AFQ056 compared to placebo

Cc1cccc(C#Cc2ccccc2)n1 [MPEP, 2-methyl-6-(phenylethynyl)-pyridine]
effect on phenotypic characteristics of the fmr1 mouse model (mGluR5): reverse phenotypic characteristics, including audiogenic seizures, altered pre-pulse inhibition (PPI), and open field hyperactivity

Cc1nc(C#Cc2cccnc2)cs1 [MTEP, 3-((2-Methyl-4-thiazolyl)ethynyl)pyridine]
alcohol intake (alcohol intake): reduced alcohol intake | alcohol withdrawal associated anxiety effects [1]: reduce alcohol withdrawal associated anxiety effects

CC/C(=C(\c1ccccc1)c1ccc(OCCN(C)C)cc1)c1ccccc1 [Tamoxifen]
ERK activation and translocation of ERK/MAPK (positive control) (ERK/MAPK): induces ERK activation; also recorded: cytoplasmic localization of ERK 1/2

CC(=O)[C@H]1CC[C@H]2[C@@H]3CC[C@H]4C[C@H](O)CC[C@]4(C)[C@H]3C(=O)C[C@]12C [alphaxalone]
effect on phenotype of fmr1 KO mice (fmr1 KO mice): reductions in anxiety and rescue of audiogenic seizures

CN1CC(=O)NC1=NC(=O)Nc1cccc(Cl)c1 [fenobam]
subjects experiencing mild sedation (adults with FXS; 12 adults with FXS): 25% | subjects who experienced clinical benefit (adults with FXS; 12 adults with FXS, reductions in hyperactivity and anxiety): 75% | pharmacokinetics (adults with FXS): variable pharmacokinetics | tolerability (adults with FXS): good tolerability

Oc1noc2c1CCNC2 [gaboxadol]
effect on phenotype of fmr1 KO mice (fmr1 KO mice): restored neuron excitability deficits in the amygdala, reduced hyperactivity, and reduced PPI deficits

CC12CC3CC(C)(C1)CC(N)(C3)C2 [memantine]
subjects who developed treatment limiting irritability [2]: Two | subjects with clinical response (CGI-I very much improved or much improved) [2]: 67% | dendritic spine development and synapse formation [3]: correction of dendritic spine development and synapse formation

Nc1nc2ccc(OC(F)(F)F)cc2s1 [riluzole]
ERK1/2 activation rates (ERK1/2): modifies ERK1/2 activation rates

NCCS(=O)(=O)O [taurine]
effect on phenotype of fmr1 KO mice (fmr1 KO mice): Improvements in memory acquisition and retention
